In ChEMBL document CHEMBL3351877, “Synthesis and identification of α-cyano bis(indolyl)chalcones as novel anticancer agents” (Bioorg Med Chem Lett, 2014):
Calls of active or inactive are those of the source. No cut-off for these calls is given here.

Tests used:
A549 [1] = test: Cytotoxicity against human A549 cells assessed as reduction in cell viability after 24 hrs by WST8 assay; type: functional, cell-based; details: A549, 24 h
[2] = Cytotoxicity against human PC3 cells assessed as reduction in cell viability after 48 hrs by WST8 assay; type: functional, cell-based; details: PC-3, 48 h
[3] = Cytotoxicity against human PC3 cells assessed as reduction in cell viability after 24 hrs by WST8 assay; type: functional, cell-based; details: PC-3, 24 h
A549 [4] = test: Cytotoxicity against human A549 cells assessed as reduction in cell viability after 48 hrs by WST8 assay; type: functional, cell-based; details: A549, 48 h
[5] = Cytotoxicity against human MIAPaCa2 cells assessed as reduction in cell viability after 48 hrs by WST8 assay; type: functional, cell-based; details: MIA PaCa-2, 48 h
[6] = Cytotoxicity against human MIAPaCa2 cells assessed as reduction in cell viability after 24 hrs by WST8 assay; type: functional, cell-based; details: MIA PaCa-2, 24 h
Tubulin (Sus scrofa) = Tubulin (Sus scrofa) (UniProt P02554+P02550); test: Induction of porcine brain tubulin polymerization at 5 uM incubated for 10 to 40 mins by spectrophotometry
Sequence of Tubulin (Sus scrofa) (P02550 whole entry, looked up): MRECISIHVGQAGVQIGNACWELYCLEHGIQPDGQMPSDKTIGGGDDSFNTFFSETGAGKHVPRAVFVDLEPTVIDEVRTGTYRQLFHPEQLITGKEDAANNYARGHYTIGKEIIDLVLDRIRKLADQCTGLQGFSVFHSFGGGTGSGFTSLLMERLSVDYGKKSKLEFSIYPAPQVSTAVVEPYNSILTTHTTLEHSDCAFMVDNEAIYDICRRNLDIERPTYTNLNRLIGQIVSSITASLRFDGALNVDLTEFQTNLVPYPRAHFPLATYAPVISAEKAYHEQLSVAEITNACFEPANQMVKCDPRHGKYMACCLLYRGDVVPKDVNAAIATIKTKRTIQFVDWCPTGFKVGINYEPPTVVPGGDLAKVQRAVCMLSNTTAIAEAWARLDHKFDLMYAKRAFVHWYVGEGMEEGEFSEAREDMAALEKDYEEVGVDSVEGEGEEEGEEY
Sequence of Tubulin (Sus scrofa) (P02554 whole entry, looked up): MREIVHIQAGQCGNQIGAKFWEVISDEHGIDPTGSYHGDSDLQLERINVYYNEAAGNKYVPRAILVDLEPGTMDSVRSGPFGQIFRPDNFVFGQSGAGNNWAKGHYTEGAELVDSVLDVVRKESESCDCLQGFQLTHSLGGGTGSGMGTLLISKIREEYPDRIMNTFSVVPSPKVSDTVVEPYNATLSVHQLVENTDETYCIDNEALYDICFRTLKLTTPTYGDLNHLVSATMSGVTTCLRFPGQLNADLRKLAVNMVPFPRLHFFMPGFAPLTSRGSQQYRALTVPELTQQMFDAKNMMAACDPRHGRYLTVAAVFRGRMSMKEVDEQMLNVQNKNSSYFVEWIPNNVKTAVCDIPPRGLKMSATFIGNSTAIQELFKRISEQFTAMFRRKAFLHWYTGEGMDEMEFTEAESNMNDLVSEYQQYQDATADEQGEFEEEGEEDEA

| SMILES | IC50 (A549 [1]) [µM] | IC50 [2] [µM] | IC50 [3] [µM] | IC50 (A549 [4]) [µM] | IC50 [5] [µM] | IC50 [6] [µM] | Activity (Tubulin (Sus scrofa)) |
| --- | --- | --- | --- | --- | --- | --- | --- |
| COc1ccc(Cn2cc(/C=C(\C#N)C(=O)c3c[nH]c4ccccc34)c3ccccc32)cc1 | > 50 | > 50 | > 50 | > 50 | > 50 | > 50 | – |
| N#C/C(=C\c1c[nH]c2ccc(Br)cc12)C(=O)c1c[nH]c2ccc(Br)cc12 | > 50 | > 50 | > 50 | > 50 | > 50 | > 50 | – |
| COc1ccc(-c2[nH]c3ccccc3c2/C=C(\C#N)C(=O)c2c[nH]c3ccccc23)cc1 | 4.9 | 8.1 | 17.2 | 3 | > 50 | 24 | – |
| COc1ccc(Cn2cc(/C=C(\C#N)C(=O)c3c[nH]c4cc(OC)ccc34)c3ccccc32)cc1 | 37.4 | > 50 | > 50 | 28.9 | > 50 | > 50 | Active |
| COc1ccc2[nH]cc(/C=C(\C#N)C(=O)c3c[nH]c4cc(F)ccc34)c2c1 | 18 | > 50 | > 50 | 26.3 | > 50 | > 50 | – |
| COc1ccc2[nH]cc(/C=C(\C#N)C(=O)c3c[nH]c4ccc(OC)cc34)c2c1 | > 50 | > 50 | > 50 | 24.5 | > 50 | 28.5 | – |
| COc1ccc2[nH]cc(C(=O)/C(C#N)=C/c3c[nH]c4cc(F)ccc34)c2c1 | > 50 | > 50 | > 50 | > 50 | > 50 | > 50 | – |
| COc1ccc2c(C(=O)/C(C#N)=C/c3c[nH]c4cc(F)ccc34)c[nH]c2c1 | 2.4 | 22.5 | 36 | 0.8 | > 50 | > 50 | – |
| Cn1cc(/C=C(\C#N)C(=O)c2c[nH]c3ccccc23)c2ccccc21 | 27.9 | > 50 | > 50 | > 50 | > 50 | 31.6 | – |
| COc1ccc2c(/C=C(\C#N)C(=O)c3c[nH]c4cc(F)ccc34)c[nH]c2c1 | 10.3 | 21.4 | > 50 | 5.5 | > 50 | > 50 | – |
| COc1ccc2c(/C=C(\C#N)C(=O)c3c[nH]c4cc(OC)ccc34)c[nH]c2c1 | 1.9 | 27 | > 50 | 1.7 | > 50 | > 50 | Active |
| N#C/C(=C\c1cn(Cc2ccc(Cl)cc2)c2ccccc12)C(=O)c1c[nH]c2cc(F)ccc12 | > 50 | > 50 | > 50 | > 50 | 16.6 | > 50 | – |
| COc1ccc2c(C(=O)/C(C#N)=C/c3c[nH]c4ccccc34)c[nH]c2c1 | 6.4 | 12 | > 50 | 7.5 | > 50 | 13.5 | Active |
| N#C/C(=C\c1c[nH]c2cc(F)ccc12)C(=O)c1c[nH]c2cc(F)ccc12 | > 50 | > 50 | > 50 | 36.1 | > 50 | > 50 | – |
| COc1ccc2c(C(=O)/C(C#N)=C/c3cn(Cc4ccc(Cl)cc4)c4ccccc34)c[nH]c2c1 | > 50 | > 50 | > 50 | > 50 | 40.4 | > 50 | – |
| N#C/C(=C\c1cn(Cc2ccc(Cl)cc2)c2ccccc12)C(=O)c1c[nH]c2ccccc12 | > 50 | > 50 | > 50 | > 50 | > 50 | > 50 | – |
| N#C/C(=C\c1cn(Cc2ccc(Cl)cc2)c2ccc(Br)cc12)C(=O)c1c[nH]c2ccccc12 | 14 | 36.5 | 47.1 | 24.9 | > 50 | 37.7 | – |
| N#C/C(=C\c1c[nH]c2ccccc12)C(=O)c1c[nH]c2ccccc12 | 16.1 | > 50 | > 50 | 22 | 36.8 | 17.9 | – |
| CO[C@@]12[C@H](COC(N)=O)C3=C(C(=O)C(C)=C(N)C3=O)N1C[C@@H]1N[C@@H]12 [MITOMYCIN] | 0.45 | – | – | – | – | – | – |
| COc1ccc(Cn2cc(/C=C(\C#N)C(=O)c3c[nH]c4cc(F)ccc34)c3ccccc32)cc1 | > 50 | > 50 | > 50 | 36.3 | 29.4 | > 50 | – |
| COc1ccc2c(C(=O)/C(C#N)=C/c3c[nH]c4ccc(OC)cc34)c[nH]c2c1 | 3.7 | 37.1 | 31.1 | 5.5 | > 50 | > 50 | – |
| COc1ccc2c(/C=C(\C#N)C(=O)c3c[nH]c4ccccc34)c[nH]c2c1 | 9.6 | 12.5 | 33.3 | 5.8 | > 50 | 27.5 | – |
| COc1ccc2[nH]cc(/C=C(\C#N)C(=O)c3c[nH]c4ccccc34)c2c1 | 6.6 | 30.5 | 33.2 | 13.7 | 25.1 | 21.2 | – |
| N#C/C(=C\c1c[nH]c2cc(F)ccc12)C(=O)c1c[nH]c2ccccc12 | 17 | > 50 | > 50 | 22.7 | 31.6 | 23.5 | – |
